Where two headings read alike, the source gives them in different places.
Tested on: 8XTBD luciferase reporter (YAP) in HEK293T cells
Assay: YAP Reporter Assay
Assay type: cell-based
Conditions: Homo sapiens, HEK-293T
[1] = HEK293T cells stably transfected with 8XTBD luciferase reporter and pRLTK, 24-hr incubation, top concentration 3 μM, read-out: Firefly Luciferase IC50
[2] = […], 24-hr incubation, top concentration 3 μM, read-out: Firefly Luciferase IC50

Row | Compound | IC50 [1] | further results
1 | C/C=C/c1nnc(-c2ccccc2Nc2ccc(C(F)(F)F)cc2)o1 [Compound 117, (E)-2-(5-(prop-1-en-1-yl)-1,3,4-oxadiazol-2-yl)-N-(4-(trifluoromethyl)phenyl)aniline] | 0.1 to 1 µM | –
2 | FC(F)(F)c1ccc(Nc2ccccc2-c2nnc(-c3nn[nH]n3)o2)cc1 [Compound 48, 2-[5-(2H-tetrazol-5-yl)-1,3,4-oxadiazol-2-yl]-N-[4-(trifluoromethyl)phenyl]aniline] | 1 to 5 µM | –
3 | CNCC(C)(C)c1nnc(-c2ccccc2Nc2ccc(C(F)(F)F)cc2)o1 [Compound 144, 2-(5-(2-methyl-1-(methylamino)propan-2-yl)-1,3,4-oxadiazol-2-yl)-N-(4-(trifluoromethyl)phenyl)aniline] | 0.1 to 1 µM | –
4 | O=C1N[C@@H](c2nnc(-c3ccccc3Nc3ccc(C(F)(F)F)cc3)o2)CO1 [Compound 77, (R)-4-(5-(2-((4-(trifluoromethyl)phenyl)amino)phenyl)-1,3,4-oxadiazol-2-yl)oxazolidin-2-one] | – | IC50 (24 h, read-out: Firefly Luciferase IC50 (μM)): < 0.1 µM
5 | CC(C)(C(=O)O)c1nnc(-c2ccccc2Nc2ccc(C(F)(F)F)cc2)o1 [Compound 103, 2-methyl-2-(5-(2-((4-(trifluoromethyl)phenyl)amino)phenyl)-1,3,4-oxadiazol-2-yl)propanoic Acid] | 0.1 to 1 µM | –
6 | CC(C)NCCc1nnc(-c2ccccc2Nc2ccc(C(F)(F)F)cc2)o1 [Compound 91, 2-(5-(2-(isopropylamino)ethyl)-1,3,4-oxadiazol-2-yl)-N-(4-(trifluoromethyl)phenyl)aniline] | 1 to 5 µM | –
7 | CC(O)(CN)c1nnc(-c2ccccc2Nc2ccc(C(F)(F)F)cc2)o1 (stereo not shown) [Compound 134, 1-amino-2-(5-(2-((4-(trifluoromethyl)phenyl)amino)phenyl)-1,3,4-oxadiazol-2-yl)propan-2-ol] | 0.1 to 1 µM | –
8 | CNc1nnc(-c2ccccc2Nc2ccc(C(F)(F)F)cc2)o1 [Compound 12, N-methyl-5-(2-((4-(trifluoromethyl)phenyl)amino)phenyl)-1,3,4-oxadiazol-2-amine] | 0.1 to 1 µM | –
9 | FC(F)(F)c1ccc(Nc2ccccc2-c2nnc(C3CCO3)o2)cc1 (stereo not shown) [Compound 182, 2-(5-(oxetan-2-yl)-1,3,4-oxadiazol-2-yl)-N-(4-(trifluoromethyl)phenyl)aniline] | < 0.1 µM | –
10 | C=C(C)c1nnc(-c2ccccc2Nc2ccc(C(F)(F)F)cc2)o1 [Compound 133, 2-(5-(prop-1-en-2-yl)-1,3,4-oxadiazol-2-yl)-N-(4-(trifluoromethyl)phenyl)aniline] | 0.1 to 1 µM | –
11 | OC(CF)c1nnc(-c2ccccc2Nc2ccc(C(F)(F)F)cc2)o1 (stereo not shown) [Compound 203, 2-fluoro-1-(5-(2-((4-(trifluoromethyl)phenyl)amino)phenyl)-1,3,4-oxadiazol-2-yl)ethan-1-ol] | < 0.1 µM | –
12 | COCCNC(=O)c1nnc(-c2ccccc2Nc2ccc(C(F)(F)F)cc2)o1 [Compound 190, N-(2-methoxyethyl)-5-(2-((4-(trifluoromethyl)phenyl)amino)phenyl)-1,3,4-oxadiazole-2-carboxamide] | < 0.1 µM | –
13 | O=C1OCC(c2nnc(-c3ccccc3Nc3ccc(C(F)(F)F)cc3)o2)O1 (stereo not shown) [Compound 29, 4-[5-[2-[4-(trifluoromethyl)anilino]phenyl]-1,3,4-oxadiazol-2-yl]-1,3-dioxolan-2-one] | < 0.1 µM | –
14 | CCc1nnc(-c2ccccc2Nc2ccc(C(F)(F)F)cc2)o1 [Compound 90, 2-(5-ethyl-1,3,4-oxadiazol-2-yl)-N-(4-(trifluoromethyl)phenyl)aniline] | 0.1 to 1 µM | –
15 | CS(=O)(=O)c1nnc(-c2ccccc2Nc2ccc(C(F)(F)F)cc2)o1 [Compound 71, 2-(5-(methylsulfonyl)-1,3,4-oxadiazol-2-yl)-N-(4-(trifluoromethyl)phenyl)aniline] | 0.1 to 1 µM | –
16 | Cc1ccc(S(=O)(=O)OC(c2nnc(-c3ccccc3Nc3ccc(C(F)(F)F)cc3)o2)C(F)(F)F)cc1 (stereo not shown) [Compound 46, 2,2,2-trifluoro-1-(5-(2-((4-(trifluoromethyl)phenyl)amino)phenyl)-1,3,4-oxadiazol-2-yl)ethyl 4-methylbenzenesulfonate] | 0.1 to 1 µM | –
17 | N#CN1CCCC1c1nnc(-c2ccccc2Nc2ccc(C(F)(F)F)cc2)o1 (stereo not shown) [Compound 171, 2-(5-(2-((4-(trifluoromethyl)phenyl)amino)phenyl)-1,3,4-oxadiazol-2-yl)pyrrolidine-1-carbonitrile] | < 0.1 µM | –
18 | C=Cc1nnc(-c2ccccc2Nc2ccc(C(F)(F)F)cc2)o1 [Compound 123, N-(4-(trifluoromethyl)phenyl)-2-(5-vinyl-1,3,4-oxadiazol-2-yl)aniline] | < 0.1 µM | –
19 | CC(C)(C)OC(=O)N1C(=O)OCC1c1nnc(-c2ccccc2Nc2ccc(C(F)(F)F)cc2)o1 (stereo not shown) [Compound 26] | < 0.1 µM | –
20 | CC(C)NC(=O)c1nnc(-c2ccccc2Nc2ccc(C(F)(F)F)cc2)o1 [Compound 196, N-isopropyl-5-(2-((4-(trifluoromethyl)phenyl)amino)phenyl)-1,3,4-oxadiazole-2-carboxamide] | – | IC50 [2]: 0.1 to 1 µM

Row | Compound | IC50 [1] | further results
21 | N#CC1(Cc2nnc(-c3ccccc3Nc3ccc(C(F)(F)F)cc3)o2)CC1 [Compound 88, 1-((5-(2-((4-(trifluoromethyl)phenyl)amino)phenyl)-1,3,4-oxadiazol-2-yl)methyl)cyclopropane-1-carbonitrile] | 0.1 to 1 µM | –
22 | CC(O)c1nnc(-c2ccccc2Nc2ccc(C(F)(F)F)cc2)o1 (stereo not shown) [Compound 41, 1-(5-(2-((4-(trifluoromethyl)phenyl)amino)phenyl)-1,3,4-oxadiazol-2-yl)ethanol] | < 0.1 µM | –
23 | FC(F)(F)c1ccc(Nc2ccccc2-c2nnc(C3CCCN3)o2)cc1 (stereo not shown) [Compound 169, 2-(5-(pyrrolidin-2-yl)-1,3,4-oxadiazol-2-yl)-N-(4-(trifluoromethyl)phenyl)aniline] | 0.1 to 1 µM | –
24 | CC(CN(C)C#N)c1nnc(-c2ccccc2Nc2ccc(C(F)(F)F)cc2)o1 (stereo not shown) [Compound 152, N-methyl-N-(2-(5-(2-((4-(trifluoromethyl)phenyl)amino)phenyl)-1,3,4-oxadiazol-2-yl)propyl)cyanamide] | < 0.1 µM | –
25 | CNCC(C)c1nnc(-c2ccccc2Nc2ccc(C(F)(F)F)cc2)o1 (stereo not shown) [Compound 150, 2-(5-(1-(methylamino)propan-2-yl)-1,3,4-oxadiazol-2-yl)-N-(4-(trifluoromethyl)phenyl)aniline] | 0.1 to 1 µM | –
26 | CC1(c2nnc(-c3ccccc3Nc3ccc(C(F)(F)F)cc3)o2)CCCO1 (stereo not shown) [Compound 178, 2-(5-(2-methyltetrahydrofuran-2-yl)-1,3,4-oxadiazol-2-yl)-N-(4-(trifluoromethyl)phenyl)aniline] | < 0.1 µM | –
27 | CCN(C#N)CCc1nnc(-c2ccccc2Nc2ccc(C(F)(F)F)cc2)o1 [Compound 96, N-ethyl-N-(2-(5-(2-((4-(trifluoromethyl)phenyl)amino)phenyl)-1,3,4-oxadiazol-2-yl)ethyl)cyanamide] | < 0.1 µM | –
28 | CNC(C)(C)c1nnc(-c2ccccc2Nc2ccc(C(F)(F)F)cc2)o1 [Compound 156, 2-(5-(2-(methylamino)propan-2-yl)-1,3,4-oxadiazol-2-yl)-N-(4-(trifluoromethyl)phenyl)aniline] | 0.1 to 1 µM | –
29 | CNC(C)c1nnc(-c2ccccc2Nc2ccc(C(F)(F)F)cc2)o1 (stereo not shown) [Compound 159, 2-(5-(1-(methylamino)ethyl)-1,3,4-oxadiazol-2-yl)-N-(4-(trifluoromethyl)phenyl)aniline] | 0.1 to 1 µM | –
30 | CCNC(=O)c1nnc(-c2ccccc2Nc2ccc(C(F)(F)F)cc2)o1 [Compound 197, N-ethyl-5-(2-((4-(trifluoromethyl)phenyl)amino)phenyl)-1,3,4-oxadiazole-2-carboxamide] | – | IC50 [2]: < 0.1 µM
31 | OCc1nnc(-c2ccccc2Nc2ccc(C(F)(F)F)cc2)o1 [Compound 5, (5-(2-((4-(trifluoromethyl)phenyl)amino)phenyl)-1,3,4-oxadiazol-2-yl)methanol] | < 0.1 µM | –
32 | NC(CO)c1nnc(-c2ccccc2Nc2ccc(C(F)(F)F)cc2)o1 (stereo not shown) [Compound 30, 2-amino-2-(5-(2-((4-(trifluoromethyl)phenyl)amino)phenyl)-1,3,4-oxadiazol-2-yl)ethanol] | 0.1 to 1 µM | –
33 | CN(C#N)C(C)(C)Cc1nnc(-c2ccccc2Nc2ccc(C(F)(F)F)cc2)o1 [Compound 143, N-methyl-N-(2-methyl-1-(5-(2-((4-(trifluoromethyl)phenyl)amino)phenyl)-1,3,4-oxadiazol-2-yl)propan-2-yl)cyanamide] | 1 to 5 µM | –
34 | CN(C#N)CCCc1nnc(-c2ccccc2Nc2ccc(C(F)(F)F)cc2)o1 [Compound 129, N-methyl-N-(3-(5-(2-((4-(trifluoromethyl)phenyl)amino)phenyl)-1,3,4-oxadiazol-2-yl)propyl)cyanamide] | < 0.1 µM | –
35 | FC(F)(F)c1ccc(Nc2ccccc2-c2nnc(C3CCCO3)o2)cc1 (stereo not shown) [Compound 181, 2-(5-(tetrahydrofuran-2-yl)-1,3,4-oxadiazol-2-yl)-N-(4-(trifluoromethyl)phenyl)aniline] | 0.1 to 1 µM | –
36 | CC(C)N(C#N)CCc1nnc(-c2ccccc2Nc2ccc(C(F)(F)F)cc2)o1 [Compound 93, N-isopropyl-N-(2-(5-(2-((4-(trifluoromethyl)phenyl)amino)phenyl)-1,3,4-oxadiazol-2-yl)ethyl)cyanamide] | 0.1 to 1 µM | –
37 | N#CCCc1nnc(-c2ccccc2Nc2ccc(C(F)(F)F)cc2)o1 [Compound 126, 3-(5-(2-((4-(trifluoromethyl)phenyl)amino)phenyl)-1,3,4-oxadiazol-2-yl)propanenitrile] | 0.1 to 1 µM | –
38 | CC(=O)c1nnc(-c2ccccc2Nc2ccc(C(F)(F)F)cc2)o1 [Compound 85, 1-(5-(2-((4-(trifluoromethyl)phenyl)amino)phenyl)-1,3,4-oxadiazol-2-yl)ethan-1-one] | < 0.1 µM | –
39 | CC(C)(O)c1nnc(-c2ccccc2Nc2ccc(C(F)(F)F)cc2)o1 [Compound 42, 2-(5-(2-((4-(trifluoromethyl)phenyl)amino)phenyl)-1,3,4-oxadiazol-2-yl)propan-2-ol] | < 0.1 µM | –
40 | OCC(O)c1nnc(-c2ccccc2Nc2ccc(C(F)(F)F)cc2)o1 (stereo not shown) [Compound 25, 1-[5-[2-[4-(trifluoromethyl)anilino]phenyl]-1,3,4-oxadiazol-2-yl]ethane-1,2-diol] | < 0.1 µM | –

From patent US11661403B2, “Oxadiazole compounds” (Vivace Therapeutics, Inc., priority 2018, dated 2023)
